Values after ≈ are worked out from the molar mass of the structure shown.
How the values were obtained:
Assay type in all cases: functional
[1] = tested on: Mycobacterium tuberculosis; test: AntiMycobacterium tuberculosis activity 1-week 7H9/glucose/BSA/Tx MIC (uM); details: 168 h
[2] = tested on: Mycobacterium tuberculosis; test: (§1) AntiMycobacterium tuberculosis activity day 10 in 7H9/2.5mM butyrate/pH6/0.1mM nitrite MIC90 (uM); details: 240 h
[3] = tested on: Mycobacterium tuberculosis; test: AntiMycobacterium tuberculosis activity 2-week 7H9/ADC/Tw MIC (uM); details: 336 h
[4] = tested on: Mycobacterium tuberculosis; test: AntiMycobacterium tuberculosis activity day 21 MIC99 in 7H9/2.5mM butyrate/pH6/0.1mM nitrite MIC99 (uM); details: 504 h
[5] = tested on: Mycobacterium tuberculosis; test: AntiMycobacterium tuberculosis activity 1-week 7H9/DPPC/cholesterol/BSA/Tx MIC (uM); details: 168 h
[6] = tested on: Mycobacterium tuberculosis; test: AntiMycobacterium tuberculosis activity 1-week 7H9/ADC/Tw MIC (uM); details: 168 h
HepG2 = test: HepG2 CC50 (uM) Cytotoxicity; details: Homo sapiens
[7] = tested on: Mycobacterium tuberculosis; test: AntiMycobacterium tuberculosis activity 2-week 7H9/glucose/BSA/Tx MIC (uM); details: 336 h
[8] = tested on: Mycobacterium tuberculosis; test: AntiMycobacterium tuberculosis activity 1-week 7H9/cholesterol/BSA/Tx MIC (uM); details: 168 h
[9] = tested on: Mycobacterium tuberculosis; test: as §1; details: 240 h; remark: listed apart in the source
[10] = tested on: Mycobacterium tuberculosis; test: AntiMycobacterium tuberculosis activity 2-week Alamar Blue 7H9/ADC/Tw MIC (uM); details: 336 h
[11] = tested on: Mycobacterium tuberculosis; test: AntiMycobacterium tuberculosis activity Non-Replicating form: Average MIC90 (uM)
[12] = tested on: Mycobacterium tuberculosis; test: AntiMycobacterium tuberculosis activity 1-week GAST/Fe MIC (uM); details: 168 h
[13] = tested on: Mycobacterium tuberculosis; test: AntiMycobacterium tuberculosis activity 2-week 7H9/DPPC/cholesterol/BSA/Tx MIC (uM); details: 336 h
[14] = tested on: Mycobacterium tuberculosis; test: AntiMycobacterium tuberculosis activity 2-week Alamar Blue 7H9/cholesterol/BSA/Tx MIC (uM); details: 336 h
[15] = tested on: Mycobacterium tuberculosis; test: AntiMycobacterium tuberculosis activity day 21 in 7H9/2.5mM butyrate/pH6/0.1mM nitrite MIC90 (uM); details: 504 h
[16] = tested on: Mycobacterium tuberculosis; test: AntiMycobacterium tuberculosis activity 2-week GAST/Fe MIC (uM); details: 336 h
[17] = tested on: Mycobacterium tuberculosis; test: AntiMycobacterium tuberculosis activity Replicating form: Average MIC90 (uM)

SMILES	MIC [1]	MIC90 [2]	MIC [3]	MIC [4]	MIC [5]	MIC [6]	CC50 (HepG2)	MIC [7]	MIC [8]	MIC90 [9]	MIC [10]	MIC90 [11]	MIC [12]	MIC [13]	MIC [14]	MIC90 [15]	MIC [16]	MIC90 [17]
CCOC(=O)c1cc(-c2csc(Nc3c(C)cc(C)cc3C)n2)on1	3.13 µM (≈ 1.12 µg/mL)	6.25 µM (≈ 2.23 µg/mL)	9.4 µM (≈ 3.36 µg/mL)	6.25 µM (≈ 2.23 µg/mL)	3.13 µM (≈ 1.12 µg/mL)	4.7 µM (≈ 1.68 µg/mL)	24.4 µM	4.7 µM (≈ 1.68 µg/mL)	1.56 µM (≈ 0.558 µg/mL)	3.1 µM (≈ 1.11 µg/mL)	6.25 µM (≈ 2.23 µg/mL)	13.8 µM (≈ 4.94 µg/mL)	12.5 µM (≈ 4.47 µg/mL)	6.25 µM (≈ 2.23 µg/mL)	3.13 µM (≈ 1.12 µg/mL)	6.25 µM (≈ 2.23 µg/mL)	12.5 µM (≈ 4.47 µg/mL)	17.5 µM (≈ 6.26 µg/mL)
Cc1cccc(Cn2ccc(NC(=O)c3ccc4c(c3)OCO4)n2)c1	12.5 µM (≈ 4.19 µg/mL)	50 µM (≈ 16.8 µg/mL)	25 µM (≈ 8.38 µg/mL)	50 µM (≈ 16.8 µg/mL)	9.4 µM (≈ 3.15 µg/mL)	9.4 µM (≈ 3.15 µg/mL)	> 100 µM	25 µM (≈ 8.38 µg/mL)	9.4 µM (≈ 3.15 µg/mL)	25 µM (≈ 8.38 µg/mL)	12.5 µM (≈ 4.19 µg/mL)	10.4 µM (≈ 3.48 µg/mL)	0.2 µM (≈ 0.0671 µg/mL)	19 µM (≈ 6.37 µg/mL)	9.4 µM (≈ 3.15 µg/mL)	50 µM (≈ 16.8 µg/mL)	0.3 µM (≈ 0.101 µg/mL)	22.6 µM (≈ 7.58 µg/mL)
CC(C)(C)c1cnc(NC(=O)c2ccccc2O)s1	> 50 µM	> 50 µM	> 50 µM	> 50 µM	> 50 µM	> 50 µM	47.6 µM	> 50 µM	> 50 µM	50 µM (≈ 13.8 µg/mL)	> 50 µM	21 µM (≈ 5.81 µg/mL)	19 µM (≈ 5.25 µg/mL)	> 50 µM	> 50 µM	50 µM (≈ 13.8 µg/mL)	25 µM (≈ 6.91 µg/mL)	81.9 µM (≈ 22.6 µg/mL)
O=C(NCc1ccoc1)N1CCN(Cc2ccc3c(c2)OCO3)CC1	37 µM (≈ 12.7 µg/mL)	6.25 µM (≈ 2.15 µg/mL)	> 50 µM	25 µM (≈ 8.58 µg/mL)	4.7 µM (≈ 1.61 µg/mL)	> 50 µM	> 100 µM	> 50 µM	3.13 µM (≈ 1.07 µg/mL)	6.25 µM (≈ 2.15 µg/mL)	6.25 µM (≈ 2.15 µg/mL)	57.1 µM (≈ 19.6 µg/mL)	0.39 µM (≈ 0.134 µg/mL)	25 µM (≈ 8.58 µg/mL)	2.3 µM (≈ 0.79 µg/mL)	25 µM (≈ 8.58 µg/mL)	0.78 µM (≈ 0.268 µg/mL)	> 100 µM
Cn1c(=O)c2c(S(C)(=O)=O)snc2n(C)c1=O	12.5 µM (≈ 3.44 µg/mL)	12.5 µM (≈ 3.44 µg/mL)	25 µM (≈ 6.88 µg/mL)	12.5 µM (≈ 3.44 µg/mL)	19 µM (≈ 5.23 µg/mL)	19 µM (≈ 5.23 µg/mL)	1.1 µM	19 µM (≈ 5.23 µg/mL)	25 µM (≈ 6.88 µg/mL)	6.25 µM (≈ 1.72 µg/mL)	25 µM (≈ 6.88 µg/mL)	< 0.23 µM	4.7 µM (≈ 1.29 µg/mL)	37 µM (≈ 10.2 µg/mL)	25 µM (≈ 6.88 µg/mL)	12.5 µM (≈ 3.44 µg/mL)	6.25 µM (≈ 1.72 µg/mL)	15.4 µM (≈ 4.24 µg/mL)
CCc1ccc([C@@H]2C[C@H](C(F)(F)F)n3ncc(C(=O)NCc4ccc(OC)cc4)c3N2)cc1	0.6 µM (≈ 0.275 µg/mL)	> 50 µM	1.56 µM (≈ 0.715 µg/mL)	> 50 µM	0.2 µM (≈ 0.0917 µg/mL)	0.78 µM (≈ 0.358 µg/mL)	50.6 µM	0.78 µM (≈ 0.358 µg/mL)	0.2 µM (≈ 0.0917 µg/mL)	6.25 µM (≈ 2.87 µg/mL)	1.56 µM (≈ 0.715 µg/mL)	1.13 µM (≈ 0.518 µg/mL)	0.1 µM (≈ 0.0458 µg/mL)	0.3 µM (≈ 0.138 µg/mL)	0.39 µM (≈ 0.179 µg/mL)	12.5 µM (≈ 5.73 µg/mL)	0.1 µM (≈ 0.0458 µg/mL)	0.24 µM (≈ 0.11 µg/mL)
O=C(c1cc2ccccc2o1)N1CCN(Cc2ccc3c(c2)OCO3)CC1	> 50 µM	> 50 µM	> 50 µM	> 50 µM	19 µM (≈ 6.92 µg/mL)	> 50 µM	> 100 µM	> 50 µM	37 µM (≈ 13.5 µg/mL)	50 µM (≈ 18.2 µg/mL)	12.5 µM (≈ 4.56 µg/mL)	16.6 µM (≈ 6.07 µg/mL)	0.1 µM (≈ 0.0364 µg/mL)	50 µM (≈ 18.2 µg/mL)	6.25 µM (≈ 2.28 µg/mL)	> 50 µM	0.2 µM (≈ 0.0729 µg/mL)	> 100 µM
CCC(Sc1nc2ccccc2o1)C(=O)Nc1nnc(C)s1 (configuration not stated)	> 50 µM	> 50 µM	> 50 µM	> 50 µM	> 50 µM	> 50 µM	> 100 µM	> 50 µM	> 50 µM	50 µM (≈ 16.7 µg/mL)	> 50 µM	4.49 µM (≈ 1.5 µg/mL)	9.4 µM (≈ 3.14 µg/mL)	> 50 µM	> 50 µM	50 µM (≈ 16.7 µg/mL)	12.5 µM (≈ 4.18 µg/mL)	68.4 µM (≈ 22.9 µg/mL)
CC1=NN(c2nc3ccccc3s2)C(=O)C1Cc1cccc2ccccc12 (configuration not stated)	12.5 µM (≈ 4.64 µg/mL)	12.5 µM (≈ 4.64 µg/mL)	25 µM (≈ 9.29 µg/mL)	12.5 µM (≈ 4.64 µg/mL)	12.5 µM (≈ 4.64 µg/mL)	19 µM (≈ 7.06 µg/mL)	21.9 µM	12.5 µM (≈ 4.64 µg/mL)	12.5 µM (≈ 4.64 µg/mL)	6.25 µM (≈ 2.32 µg/mL)	25 µM (≈ 9.29 µg/mL)	> 100 µM	1.56 µM (≈ 0.579 µg/mL)	12.5 µM (≈ 4.64 µg/mL)	19 µM (≈ 7.06 µg/mL)	12.5 µM (≈ 4.64 µg/mL)	3.13 µM (≈ 1.16 µg/mL)	96.7 µM (≈ 35.9 µg/mL)
COc1ccc(C2(C(=O)Nc3ccc(Br)cc3)CCCC2)cc1	12.5 µM (≈ 4.68 µg/mL)	> 50 µM	12.5 µM (≈ 4.68 µg/mL)	50 µM (≈ 18.7 µg/mL)	12.5 µM (≈ 4.68 µg/mL)	19 µM (≈ 7.11 µg/mL)	> 100 µM	12.5 µM (≈ 4.68 µg/mL)	9.4 µM (≈ 3.52 µg/mL)	50 µM (≈ 18.7 µg/mL)	12.5 µM (≈ 4.68 µg/mL)	46.5 µM (≈ 17.4 µg/mL)	19 µM (≈ 7.11 µg/mL)	9.4 µM (≈ 3.52 µg/mL)	12.5 µM (≈ 4.68 µg/mL)	50 µM (≈ 18.7 µg/mL)	19 µM (≈ 7.11 µg/mL)	26.5 µM (≈ 9.93 µg/mL)
Cc1cc(OCC(=O)NCc2ccccc2)c2cc(Br)ccc2n1	37 µM (≈ 14.3 µg/mL)	25 µM (≈ 9.63 µg/mL)	> 50 µM	> 50 µM	3.13 µM (≈ 1.21 µg/mL)	50 µM (≈ 19.3 µg/mL)	31 µM	50 µM (≈ 19.3 µg/mL)	2.3 µM (≈ 0.886 µg/mL)	1.5 µM (≈ 0.578 µg/mL)	4.7 µM (≈ 1.81 µg/mL)	21.2 µM (≈ 8.17 µg/mL)	0.2 µM (≈ 0.0771 µg/mL)	25 µM (≈ 9.63 µg/mL)	1.56 µM (≈ 0.601 µg/mL)	6.25 µM (≈ 2.41 µg/mL)	0.39 µM (≈ 0.15 µg/mL)	> 100 µM
Cc1cc(C)cc(COc2ccc3c(C)c(CCC(=O)O)c(=O)oc3c2C)c1	> 50 µM	> 50 µM	> 50 µM	> 50 µM	50 µM (≈ 19 µg/mL)	> 50 µM	> 100 µM	> 50 µM	> 50 µM	> 50 µM	> 50 µM	> 100 µM	6.25 µM (≈ 2.38 µg/mL)	50 µM (≈ 19 µg/mL)	> 50 µM	> 50 µM	9.4 µM (≈ 3.58 µg/mL)	> 100 µM
O=C1O[C@@H](COc2ccon2)CN1c1cc(F)c(C2=CCN(Cc3ccccc3)CC2)c(F)c1	0.78 µM (≈ 0.365 µg/mL)	25 µM (≈ 11.7 µg/mL)	0.6 µM (≈ 0.28 µg/mL)	25 µM (≈ 11.7 µg/mL)	1.56 µM (≈ 0.729 µg/mL)	0.39 µM (≈ 0.182 µg/mL)	30.4 µM	0.78 µM (≈ 0.365 µg/mL)	1.2 µM (≈ 0.561 µg/mL)	6.25 µM (≈ 2.92 µg/mL)	0.39 µM (≈ 0.182 µg/mL)	2.88 µM (≈ 1.35 µg/mL)	0.78 µM (≈ 0.365 µg/mL)	1.56 µM (≈ 0.729 µg/mL)	0.6 µM (≈ 0.28 µg/mL)	6.25 µM (≈ 2.92 µg/mL)	1.56 µM (≈ 0.729 µg/mL)	3.51 µM (≈ 1.64 µg/mL)
CCC(Sc1nc2ccccc2o1)C(=O)Nc1nccs1 (configuration not stated)	9.4 µM (≈ 3 µg/mL)	12.5 µM (≈ 3.99 µg/mL)	9.4 µM (≈ 3 µg/mL)	6.25 µM (≈ 2 µg/mL)	9.4 µM (≈ 3 µg/mL)	9.4 µM (≈ 3 µg/mL)	13 µM	12.5 µM (≈ 3.99 µg/mL)	12.5 µM (≈ 3.99 µg/mL)	6.25 µM (≈ 2 µg/mL)	9.4 µM (≈ 3 µg/mL)	1.38 µM (≈ 0.441 µg/mL)	37 µM (≈ 11.8 µg/mL)	12.5 µM (≈ 3.99 µg/mL)	12.5 µM (≈ 3.99 µg/mL)	6.25 µM (≈ 2 µg/mL)	37 µM (≈ 11.8 µg/mL)	3.08 µM (≈ 0.984 µg/mL)

— ChEMBL document CHEMBL3832761, “MMV Pathogen Box Bioactivity Data” (2017)
